Laboratory results taken from patent US4220755A, “Fortimicin B derivatives and process for production thereof” (Abbott Laboratories, priority 1976, dated 1980).
≈ marks a conversion by molar mass, not a printed value. Read-outs that look alike come from different tables or passages of the source.

Assays:
[1] = Stability in alkaline aqueous conditions; assay type: physicochemical; conditions: for Stability in aqueous solution: pH 10, room temperature, within one hour
Protocol: The stability of 4-N-acylfortimicin B derivatives in aqueous alkaline conditions is poor. […] Therefore, purification of these compounds under basic conditions (for example, column chromatography with Amberlite CG-50, eluting with aqueous ammonia) is not practical.
In contrast with the instability of 4-N-acylfortimicin B derivatives, 4-N-alkylfortimicin B derivatives are so stable that no decomposition occurs even in aqueous barium hydroxide solution at reflux temperature for 18 hours. Therefore, in the case of 4-N-alkylfortimicin B, any substituents can be introduced at 4-N-position of fortimicin B, even though such substituents can not be introduced as the acyl type to such position due to the aforementioned instability.

[2] = system: Staphylococcus aureus KY4279 ATCC6538P; experiment: MIC, agar dilution method, pH 8.0; assay type: cell-based
Protocol: (§1) Measurement was carried out according to the agar dilution method, using a medium of pH 8.0, or the Japanese Antibiotic Medicament Standard, using a medium of pH 7.2 Units are in mcg/ml.
S.A.: Staphylococcus aureus KY4279 ATCC6538P

[3] = system: Shigella sonnei KY4281 ATCC9290; experiment: MIC, agar dilution method, pH 8.0; assay type: cell-based; conditions: ATCC9290; pH 8.0; Shigella sonnei KY4281; read-out: Minimum inhibition concentration (MIC), SS
Protocol: as §1

[4] = system: Proteus vulgaris KY4277 ATCC6897; experiment: MIC, agar dilution method, pH 8.0; assay type: cell-based; conditions: ATCC6897; pH 8.0; Proteus vulgaris KY4277; read-out: Minimum inhibition concentration (MIC), PV
Protocol: as §1

Bacillus subtilis KY4273 = experiment: MIC, agar dilution method, pH 8.0; assay type: cell-based; conditions: pH 8.0; Bacillus subtilis KY4273; read-out: Minimum inhibition concentration (MIC), BS
Protocol: as §1
B.S.: Bacillus subtilis KY4273

[5] = system: Salmonella typhosa KY4278 ATCC9992; experiment: MIC, agar dilution method, pH 8.0; assay type: cell-based; conditions: Salmonella enterica, pH 8, read-out: Minimum inhibition concentration (MIC), ST
Protocol: as §1
S.T.: Salmonella typhosa KY4278 ATCC9992

[6] = system: Eschericia coli KY4271 ATCC26; experiment: MIC, agar dilution method, pH 8.0; assay type: cell-based; conditions: Escherichia coli
Protocol: as §1
E.C.: Eschericia coli KY4271 ATCC26

[7] = system: Klebsiella pneumoniae KY4275 ATCC10031; experiment: MIC, agar dilution method, pH 8.0; assay type: cell-based; conditions: ATCC10031; pH 8.0; Klebsiella pneumoniae KY4275; read-out: Minimum inhibition concentration (MIC), KP
Protocol: as §1
K.P.: Klebsiella pneumoniae KY4275 ATCC10031.

[8] = system: Escherichia coli R18 KY8321; experiment: MIC, agar dilution method, pH 7.2; assay type: cell-based; conditions: R18KY8321, E. coli R18 KY8321, 2**: gentamicin, producing adenylsynthetase and neomycin phosphotransferase type II, read-out: Minimum inhibition concentration (MIC)
Protocol: as §1
2: gentamicin, producing adenylsynthetase and neomycin phosphotransferase

[9] = system: Pseudomonas aeruginosa R5 KY8512; experiment: MIC, agar dilution method, pH 7.2; assay type: cell-based; conditions: R5KY8512, pH 7.2, P. aeruginosa R5 KY8512, 6**: neomycin, producing phosphotransferase type I and type II, read-out: Minimum inhibition concentration (MIC)
Protocol: as §1
6: neomycin, producing phosphotransferase type I and type II.

[10] = system: Pseudomonas aeruginosa UCLA 4184; experiment: MIC, agar dilution method, pH 7.2; assay type: cell-based; conditions: UCLA4184; pH 7.2; Pseudomonas aeruginosa UCLA 4184; read-out: Minimum inhibition concentration (MIC)
Protocol: as §1

[11] = system: Staphylococcus aureus 209-P; experiment: MIC, agar dilution method, pH 7.2; assay type: cell-based; conditions: pH 7.2; Staphylococcus aureus 209-P; read-out: Minimum inhibition concentration (MIC)
Protocol: as §1

Proteus vulgaris JJ = experiment: MIC, agar dilution method, pH 7.2; assay type: cell-based; conditions: pH 7.2; Proteus vulgaris JJ; read-out: Minimum inhibition concentration (MIC)
Protocol: as §1

Shigella sonnei ATCC9290 = experiment: MIC, agar dilution method, pH 7.2; assay type: cell-based; conditions: read-out: Minimum inhibition concentration (MIC)
Protocol: as §1

[12] = system: Staphylococcus aureus Smith (A); experiment: MIC, agar dilution method, pH 7.2; assay type: cell-based; conditions: pH 7.2; Staphylococcus aureus Smith (A); read-out: Minimum inhibition concentration (MIC)
Protocol: as §1

[13] = system: Eschericihia coli GN2411-5; experiment: MIC, agar dilution method, pH 7.2; assay type: cell-based; conditions: Escherichia coli; pH 7.2; E. coli GN2411-5; read-out: Minimum inhibition concentration (MIC)
Protocol: as §1

[14] = system: Pseudomonas aeruginosa BMH# 1; experiment: MIC, agar dilution method, pH 7.2; assay type: cell-based; conditions: pH 7.2; Pseudomonas aeruginosa BMH# 1; read-out: Minimum inhibition concentration (MIC)
Protocol: as §1

[15] = system: Klebsiella pneumoniae KY4274; experiment: MIC, agar dilution method, pH 7.2; assay type: cell-based; conditions: pH 7.2; Klebsiella pneumoniae KY4274; read-out: Minimum inhibition concentration (MIC)
Protocol: as §1

[16] = system: Salmonella enteritidis G-14; experiment: MIC, agar dilution method, pH 7.2; assay type: cell-based; conditions: Salmonella enterica; pH 7.2; Salmonella enteritidis G-14; read-out: Minimum inhibition concentration (MIC)
Protocol: as §1

Escherichia coli NIHTC-2 = experiment: MIC, agar dilution method, pH 7.2; assay type: cell-based; conditions: NIHTC2; pH 7.2; Escherichia coli NIHTC-2; read-out: Minimum inhibition concentration (MIC)
Protocol: as §1

Providencia sp 164 = experiment: MIC, agar dilution method, pH 7.2; assay type: cell-based; conditions: pH 7.2; Providencia sp 164; 7**: gentamicin, producing acetyltransferase type II; read-out: Minimum inhibition concentration (MIC)
Protocol: as §1
7: gentamicin, producing acetyltransferase type II.

Eschericihia coli 3100 = experiment: MIC, agar dilution method, pH 7.2; assay type: cell-based, Escherichia coli; conditions: Escherichia coli; pH 7.2; E. coli 3100; read-out: Minimum inhibition concentration (MIC)
Protocol: as §1

[17] = system: Escherichia coli R20 KY8349; experiment: MIC, agar dilution method, pH 7.2; assay type: cell-based; conditions: R20KY8349, pH 7.2, E. coli R20 KY8349, 5**: neomycin, producing phosphotransferase type I, read-out: Minimum inhibition concentration (MIC)
Protocol: as §1
5: neomycin, producing phosphotransferase type I.

[18] = system: Staphylococcus a ureus 226; experiment: MIC, agar dilution method, pH 7.2; assay type: cell-based, Staphylococcus aureus; conditions: pH 7.2; Staphylococcus aureus 226; read-out: Minimum inhibition concentration (MIC)
Protocol: as §1

[19] = system: Pseudomonas aeruginosa R9 KY8516; experiment: MIC, agar dilution method, pH 7.2; assay type: cell-based; conditions: R9KY8516, pH 7.2, P. aeruginosa R9 KY8516, 3**: kanamycin, producing acetyltransferase, read-out: Minimum inhibition concentration (MIC)
Protocol: as §1
(§2) 3: kanamycin, producing acetyltransferase.

Serratia marcescens 1065 = experiment: MIC, agar dilution method, pH 7.2; assay type: cell-based; conditions: pH 7.2; Serratia marcescens 1065; 3**: kanamycin, producing acetyltransferase; read-out: Minimum inhibition concentration (MIC)
Protocol: as §1, §2

[20] = system: Escherichia coli R17 Z343; experiment: MIC, agar dilution method, pH 7.2; assay type: cell-based; conditions: R17Z343, pH 7.2, E. coli R17 Z343, 3**: kanamycin, producing acetyltransferase, read-out: Minimum inhibition concentration (MIC)
Protocol: as §1, §2

[21] = system: Escherichia coli R19 KY8348; experiment: MIC, agar dilution method, pH 7.2; assay type: cell-based; conditions: R19KY8348, pH 7.2, E. coli R19 KY8348, 4**: gentamicin, producing acetyltransferase type I, read-out: Minimum inhibition concentration (MIC)
Protocol: as §1
(§3) 4: gentamicin, producing acetyltransferase type I.

[22] = system: Pseudomonas aeruginosa R4 KY8511; experiment: MIC, agar dilution method, pH 7.2; assay type: cell-based; conditions: R4KY8511, pH 7.2, P. aeruginosa R4 KY8511, 4**: gentamicin, producing acetyltransferase type I, read-out: Minimum inhibition concentration (MIC)
Protocol: as §1, §3

[23] = system: Escherichia coli 57R/W677; experiment: MIC, agar dilution method, pH 7.2; assay type: cell-based; conditions: 57R/W677, pH 7.2, read-out: Minimum inhibition concentration (MIC)
Protocol: as §1
(§4) **1: gentamicin, producing adenylsynthetase.

Escherichia coli 76-2 = experiment: MIC, agar dilution method, pH 7.2; assay type: cell-based; conditions: Escherichia coli, 762; pH 7.2; E. coli 76-2; 1**: gentamicin, producing adenylsynthetase; read-out: Minimum inhibition concentration (MIC)
Protocol: as §1, §4

[24] = system: Klebsiella pneumoniae 3020 Y-60; experiment: MIC, agar dilution method, pH 7.2; assay type: cell-based; conditions: 3020Y60; pH 7.2; Klebsiella pneumoniae 3020 Y-60; 1**: gentamicin, producing adenylsynthetase; read-out: Minimum inhibition concentration (MIC)
Protocol: as §1, §4

[25] = system: Escherichia coli R12 Z-338; experiment: MIC, agar dilution method, pH 7.2; assay type: cell-based; conditions: R12Z338, pH 7.2, E. coli R12 Z-338, 1**: gentamicin, producing adenylsynthetase, read-out: Minimum inhibition concentration (MIC)
Protocol: as §1, §4

Q: Which results are given for `CO[C@H]1[C@@H](O)[C@H](N)[C@@H](O[C@H]2O[C@H]([C@H](C)N)CC[C@H]2N)[C@H](O)[C@@H]1N(C)C(=O)CCCCN` [Compound 11, 4-N-(δ-amino-n-valeryl)fortimicin B]?
A: Stability in alkali condition (MIC medium) ([1]; pH 8.0): unstable; Stability in aqueous solution [1]: almost completely decomposed

Q: Which results are given for `CO[C@H]1[C@@H](O)[C@H](N)[C@@H](O[C@H]2O[C@H]([C@H](C)N)CC[C@H]2N)[C@H](O)[C@@H]1N(C)C(=O)[C@@H](O)CCN` [Compound 14, 4-N-[L-(-)-γ-amino-α-hydroxybutyryl]fortimicin B]?
A: MIC ([2]; pH 8.0, Staphylococcus aureus KY4279, read-out: Minimum inhibition concentration (MIC), SA): 0.63 µg/mL (≈ 1.4 µM); Stability in aqueous solution [1]: almost completely decomposed; MIC [3]: 20 µg/mL (≈ 44.5 µM); MIC [4]: 10 µg/mL (≈ 22.2 µM); MIC (Bacillus subtilis KY4273): 5 µg/mL (≈ 11.1 µM); MIC [5]: 2.5 µg/mL (≈ 5.56 µM); MIC ([6]; ATCC26, pH 8.0, E. coli KY4271, read-out: Minimum inhibition concentration (MIC), EC): 0.63 µg/mL (≈ 1.4 µM); MIC [7]: 5 µg/mL (≈ 11.1 µM)

Q: Which MIC ([2]; Staphylococcus aureus, pH 8, read-out: Minimum inhibition concentration (MIC), SA) does the source give for `CO[C@H]1[C@@H](O)[C@H](N)[C@@H](O[C@H]2O[C@H]([C@H](C)N)CC[C@H]2N)[C@H](O)[C@@H]1N(C)C(=O)CO` [Compound 4, 4-N-glycolylfortimicin B] here?
A: 1.25 µg/mL (≈ 3.08 µM)

Q: And the MIC [8]?
A: 6.25 µg/mL (≈ 15.4 µM)

Q: What about the MIC [9] of the same compound?
A: 50 µg/mL (≈ 123 µM)

Q: And the MIC [10]?
A: 100 µg/mL (≈ 246 µM)

Q: What about the MIC [11] of the same compound?
A: 3.12 µg/mL (≈ 7.68 µM)

Q: What about the MIC (Proteus vulgaris JJ) of the same compound?
A: 25 µg/mL (≈ 61.5 µM)

Q: And the MIC (Shigella sonnei ATCC9290)?
A: 25 µg/mL (≈ 61.5 µM)

Q: And the MIC [12]?
A: 3.12 µg/mL (≈ 7.68 µM)

Q: What about the MIC [13] of the same compound?
A: 12.5 µg/mL (≈ 30.8 µM)

Q: And the MIC [14]?
A: 50 µg/mL (≈ 123 µM)

Q: And the MIC [15]?
A: 25 µg/mL (≈ 61.5 µM)

Q: And the MIC [16]?
A: 25 µg/mL (≈ 61.5 µM)

Q: And the MIC (Escherichia coli NIHTC-2)?
A: 12.5 µg/mL (≈ 30.8 µM)

Q: What about the MIC [3] of the same compound?
A: 5 µg/mL (≈ 12.3 µM)

Q: And the MIC [4]?
A: 2.5 µg/mL (≈ 6.15 µM)

Q: What about the MIC (Providencia sp 164) of the same compound?
A: 100 µg/mL (≈ 246 µM)

Q: And the MIC (Eschericihia coli 3100)?
A: 12.5 µg/mL (≈ 30.8 µM)

Q: What about the MIC (Bacillus subtilis KY4273) of the same compound?
A: 5 µg/mL (≈ 12.3 µM)

Q: And the MIC [17]?
A: 12.5 µg/mL (≈ 30.8 µM)

Q: What about the MIC [18] of the same compound?
A: 12.5 µg/mL (≈ 30.8 µM)

Q: What about the MIC [5] of the same compound?
A: 1.25 µg/mL (≈ 3.08 µM)

Q: And the MIC [19]?
A: 100 µg/mL (≈ 246 µM)

Q: And the MIC (Serratia marcescens 1065)?
A: 50 µg/mL (≈ 123 µM)

Q: What about the MIC [20] of the same compound?
A: 6.25 µg/mL (≈ 15.4 µM)

Q: What about the MIC [21] of the same compound?
A: > 100 µg/mL

Q: And the MIC [22]?
A: > 100 µg/mL

Q: What about the MIC ([6]; ATCC26, pH 8, read-out: Minimum inhibition concentration (MIC), EC) of the same compound?
A: 1.25 µg/mL (≈ 3.08 µM)

Q: And the MIC [23]?
A: 25 µg/mL (≈ 61.5 µM)

Q: And the MIC (Escherichia coli 76-2)?
A: 6.25 µg/mL (≈ 15.4 µM)

Q: And the MIC [24]?
A: > 100 µg/mL

Q: What about the MIC [25] of the same compound?
A: 25 µg/mL (≈ 61.5 µM)

Q: What about the MIC [7] of the same compound?
A: 5 µg/mL (≈ 12.3 µM)
